ChEMBL document CHEMBL3885881, “DrugMatrix”

Organism: Rattus norvegicus
Experiment: DrugMatrix - Regimen: Daily Repeat
Type: toxicity, organism-based, Sprague-Dawley
Set-up: regimen Daily Repeat, gender Male, age 6-8 weeks
Settings: in vivo, po, route oral GAVAGE, vehicle .5 % CMC; for URIC ACID / ALANINE AMINOTRANSFERASE / ALBUMIN / ALKALINE PHOSPHATASE / ASPARTATE AMINOTRANSFERASE / BLOOD UREA NITROGEN / CARBON DIOXIDE / CHLORIDE / CHOLESTEROL / CREATINE PHOSPHOKINASE / CREATININE / GLUCOSE / LACTATE DEHYDROGENASE / LIPASE / PHOSPHORUS / POTASSIUM / SODIUM / TOTAL BILIRUBIN / TOTAL PROTEIN: tissue Plasma; for ABSOLUTE BASOPHIL / ABSOLUTE EOSINOPHIL / ABSOLUTE LYMPHOCYTE / ABSOLUTE MONOCYTE / ABSOLUTE SEGMENTED NEUTROPHIL / BASOPHIL / EOSINOPHIL / ERYTHROCYTE COUNT / HEMATOCRIT / HEMOGLOBIN / LEUKOCYTE COUNT / LYMPHOCYTE / MEAN CORPUSCULAR HEMOGLOBIN / MEAN CORPUSCULAR HEMOGLOBIN CONCENTRATION / MEAN CORPUSCULAR VOLUME / MONOCYTE / NEUTROPHIL / NUCLEATED RED BLOOD CELLS / PLATELET COUNT: tissue Blood
[1] = 10 mg/kg, 120 h, dose level Low, time 5 day
[2] = 400 mg/kg, 72 h, dose level High, time 3 day
[3] = 400 mg/kg, 120 h, dose level High, time 5 day

Structure (SMILES): CC(C)(C#N)c1cc(Cn2cncn2)cc(C(C)(C)C#N)c1 [ANASTROZOLE]
- URIC ACID (10 mg/kg, 72 h, dose level Low, time 3 day): 1.33 mg/dL
- ABSOLUTE BASOPHIL [1]: 0 CELLS/uL
- ABSOLUTE EOSINOPHIL [1]: 0 CELLS/uL
- ABSOLUTE LYMPHOCYTE [1]: 12980 CELLS/uL
- ABSOLUTE MONOCYTE [1]: 0 CELLS/uL
- ABSOLUTE SEGMENTED NEUTROPHIL [1]: 1020 CELLS/uL
- BASOPHIL [1]: 0%
- EOSINOPHIL [1]: 0%
- ERYTHROCYTE COUNT [1]: 5.49 x10E6/uL
- HEMATOCRIT [1]: 34.93%
- HEMOGLOBIN [1]: 13.93 G/DL
- LEUKOCYTE COUNT [1]: 14 x10E3/uL
- LYMPHOCYTE [1]: 92.67%
- MEAN CORPUSCULAR HEMOGLOBIN [1]: 25.4 pg
- MEAN CORPUSCULAR HEMOGLOBIN CONCENTRATION [1]: 39.87 G/DL
- MEAN CORPUSCULAR VOLUME [1]: 63.57 fL
- MONOCYTE [1]: 0%
- NEUTROPHIL [1]: 7.33%
- NUCLEATED RED BLOOD CELLS [1]: 0 /100WBC
- PLATELET COUNT [1]: 1087.67 x10E3/uL
- ALANINE AMINOTRANSFERASE [1]: 48 u/L
- ALBUMIN [1]: 4.1 G/DL
- ALKALINE PHOSPHATASE [1]: 364.67 u/L
- ASPARTATE AMINOTRANSFERASE [1]: 77.33 u/L
- BLOOD UREA NITROGEN [1]: 18.33 mg/dL
- CARBON DIOXIDE [1]: 26 mmol/L
- CHLORIDE [1]: 103 MEQ/L
- CHOLESTEROL [1]: 60.67 mg/dL
- CREATINE PHOSPHOKINASE [1]: 224.33 u/L
- CREATININE [1]: 0.14 mg/dL
- GLUCOSE [1]: 146 mg/dL
- LACTATE DEHYDROGENASE [1]: 164 u/L
- LIPASE [1]: 9.33 u/L
- PHOSPHORUS [1]: 13.6 mg/dL
- POTASSIUM [1]: 7.31 MEQ/L
- SODIUM [1]: 142.23 MEQ/L
- TOTAL BILIRUBIN [1]: 0.2 mg/dL
- TOTAL PROTEIN [1]: 5.87 G/DL
- URIC ACID [1]: 1.9 mg/dL
- ABSOLUTE BASOPHIL [2]: 0 CELLS/uL
- ABSOLUTE EOSINOPHIL [2]: 0 CELLS/uL
- ABSOLUTE LYMPHOCYTE [2]: 16859 CELLS/uL
- ABSOLUTE MONOCYTE [2]: 135.33 CELLS/uL
- ABSOLUTE SEGMENTED NEUTROPHIL [2]: 1372.33 CELLS/uL
- BASOPHIL [2]: 0%
- EOSINOPHIL [2]: 0%
- ERYTHROCYTE COUNT [2]: 5.62 x10E6/uL
- HEMATOCRIT [2]: 34.7%
- HEMOGLOBIN [2]: 13.6 G/DL
- LEUKOCYTE COUNT [2]: 18.37 x10E3/uL
- LYMPHOCYTE [2]: 91.67%
- MEAN CORPUSCULAR HEMOGLOBIN [2]: 24.17 pg
- MEAN CORPUSCULAR HEMOGLOBIN CONCENTRATION [2]: 39.17 G/DL
- MEAN CORPUSCULAR VOLUME [2]: 61.7 fL
- MONOCYTE [2]: 0.67%
- NEUTROPHIL [2]: 7.67%
- NUCLEATED RED BLOOD CELLS [2]: 0.33 /100WBC
- PLATELET COUNT [2]: 1228.33 x10E3/uL
- ALANINE AMINOTRANSFERASE [2]: 89 u/L
- ALBUMIN [2]: 4.27 G/DL
- ALKALINE PHOSPHATASE [2]: 433 u/L
- ASPARTATE AMINOTRANSFERASE [2]: 126 u/L
- BLOOD UREA NITROGEN [2]: 17.33 mg/dL
- CARBON DIOXIDE [2]: 28.33 mmol/L
- CHLORIDE [2]: 98.33 MEQ/L
- CHOLESTEROL [2]: 69.33 mg/dL
- CREATINE PHOSPHOKINASE [2]: 255 u/L
- CREATININE [2]: 0.3 mg/dL
- GLUCOSE [2]: 143 mg/dL
- LACTATE DEHYDROGENASE [2]: 237 u/L
- LIPASE [2]: 11.33 u/L
- PHOSPHORUS [2]: 11.7 mg/dL
- POTASSIUM [2]: 7.49 MEQ/L
- SODIUM [2]: 141.93 MEQ/L
- TOTAL BILIRUBIN [2]: 0.17 mg/dL
- TOTAL PROTEIN [2]: 5.87 G/DL
- URIC ACID [2]: 1.83 mg/dL
- ABSOLUTE BASOPHIL [3]: 0 CELLS/uL
- ABSOLUTE EOSINOPHIL [3]: 0 CELLS/uL
- ABSOLUTE LYMPHOCYTE [3]: 11924.33 CELLS/uL
- ABSOLUTE MONOCYTE [3]: 19.67 CELLS/uL
- ABSOLUTE SEGMENTED NEUTROPHIL [3]: 1989.33 CELLS/uL
- BASOPHIL [3]: 0%
- EOSINOPHIL [3]: 0%
- ERYTHROCYTE COUNT [3]: 5.98 x10E6/uL
- HEMATOCRIT [3]: 35.47%
- HEMOGLOBIN [3]: 14.6 G/DL
- LEUKOCYTE COUNT [3]: 13.93 x10E3/uL
- LYMPHOCYTE [3]: 82%
- MEAN CORPUSCULAR HEMOGLOBIN [3]: 24.43 pg
- MEAN CORPUSCULAR HEMOGLOBIN CONCENTRATION [3]: 41.17 G/DL
- MEAN CORPUSCULAR VOLUME [3]: 59.37 fL
- MONOCYTE [3]: 0.33%
- NEUTROPHIL [3]: 17.67%
- NUCLEATED RED BLOOD CELLS [3]: 0.67 /100WBC
- PLATELET COUNT [3]: 1447 x10E3/uL
- ALANINE AMINOTRANSFERASE [3]: 478.67 u/L
- ALBUMIN [3]: 4.53 G/DL
- ALKALINE PHOSPHATASE [3]: 622.67 u/L
- ASPARTATE AMINOTRANSFERASE [3]: 1130.67 u/L
- BLOOD UREA NITROGEN [3]: 22 mg/dL
- CARBON DIOXIDE [3]: 21.33 mmol/L
- CHLORIDE [3]: 99.33 MEQ/L
- CHOLESTEROL [3]: 88.33 mg/dL
- CREATINE PHOSPHOKINASE [3]: 445.67 u/L
- CREATININE [3]: 0.46 mg/dL
- GLUCOSE [3]: 115 mg/dL
- LACTATE DEHYDROGENASE [3]: 826.67 u/L
- LIPASE [3]: 14.33 u/L
- PHOSPHORUS [3]: 11.97 mg/dL
- POTASSIUM [3]: 6.47 MEQ/L
- SODIUM [3]: 142.23 MEQ/L
- TOTAL BILIRUBIN [3]: 0.17 mg/dL
- URIC ACID [3]: 2.23 mg/dL
